From ChEMBL document CHEMBL5335822, “Identification of benzothiazole derived monosaccharides as potent, selective, and orally bioavailable inhibitors of human and mouse galectin-3; a rare example of using a S···O binding interaction for drug design” (Bioorg Med Chem, 2024)

Experiments:
[1] = Permeability of the compound at pH 7.4 incubated for 4 hrs by PAMPA based SpectraMax UV-plate reader analysis; assay type: ADME; conditions: read-out: permeability
[2] = Permeability of the compound at pH 5.5 incubated for 4 hrs by PAMPA based SpectraMax UV-plate reader analysis; assay type: ADME; conditions: read-out: permeability
Galectin-3 [3] = biological target: Galectin-3 (Mus musculus, UniProt P16110); experiment: Inhibition of mouse Galectin-3
Galectin-3 [4] = biological target: Galectin-3 (Homo sapiens, UniProt P17931); experiment: Inhibition of human Galectin-3
Galectin-1 = Galectin-1 (Homo sapiens, UniProt P09382); experiment: Inhibition of human Galectin-1
Galectin-9 = Galectin-9 (Homo sapiens, UniProt O00182); experiment: Inhibition of human Galectin-9
[5] = AUC in mouse at 10 mg/kg,po administration; assay type: ADME, organism-based; parameters: dose 10 mg/kg, route po; conditions: in vivo
Homo sapiens [6] = species: Homo sapiens; experiment: Selectivity ratio of IC50 for inhibition of human Galectin-9 to IC50 for inhibition of human Galectin-3
Homo sapiens [7] = species: Homo sapiens; experiment: Selectivity ratio of IC50 for inhibition of human Galectin-1 to IC50 for inhibition of human Galectin-3
[8] = Cmax in mouse at 10 mg/kg,po administration; assay type: ADME, organism-based; parameters: dose 10 mg/kg, route po; conditions: in vivo
[9] = Volume of distribution at steady state in mouse at 10 mg/kg,po administration; assay type: ADME, organism-based; conditions: in vivo
[10] = Oral bioavailability in mouse at 10 mg/kg administration; assay type: ADME, organism-based; conditions: in vivo
[11] = Clearance in mouse at 10 mg/kg,po administration; assay type: ADME, organism-based; conditions: in vivo

Sequence of Galectin-1 (P09382 whole entry): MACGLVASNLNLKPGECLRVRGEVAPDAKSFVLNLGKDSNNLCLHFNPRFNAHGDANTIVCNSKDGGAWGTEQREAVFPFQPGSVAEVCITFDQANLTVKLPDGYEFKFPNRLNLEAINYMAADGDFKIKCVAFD
Sequence of Galectin-3 (Homo sapiens, UniProt P17931) (P17931 whole entry): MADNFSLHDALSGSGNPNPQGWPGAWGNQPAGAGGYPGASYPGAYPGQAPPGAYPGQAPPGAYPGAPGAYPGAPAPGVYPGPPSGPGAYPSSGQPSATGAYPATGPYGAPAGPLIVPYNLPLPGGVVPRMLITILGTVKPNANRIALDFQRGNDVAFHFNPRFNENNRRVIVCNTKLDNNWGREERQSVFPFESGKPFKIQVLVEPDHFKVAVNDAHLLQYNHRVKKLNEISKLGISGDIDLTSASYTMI
Sequence of Galectin-9 (O00182 whole entry): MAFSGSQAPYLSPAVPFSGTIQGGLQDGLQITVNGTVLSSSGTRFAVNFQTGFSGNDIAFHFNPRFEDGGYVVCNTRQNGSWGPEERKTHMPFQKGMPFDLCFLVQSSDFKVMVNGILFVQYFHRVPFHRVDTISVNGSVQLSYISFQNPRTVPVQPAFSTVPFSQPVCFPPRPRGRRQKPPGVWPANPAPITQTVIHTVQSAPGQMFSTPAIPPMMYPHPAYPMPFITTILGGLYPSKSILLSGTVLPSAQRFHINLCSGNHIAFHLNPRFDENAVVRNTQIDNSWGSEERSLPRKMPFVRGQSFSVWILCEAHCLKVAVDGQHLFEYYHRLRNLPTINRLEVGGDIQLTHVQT
Sequence of Galectin-3 (Mus musculus, UniProt P16110) (P16110 whole entry): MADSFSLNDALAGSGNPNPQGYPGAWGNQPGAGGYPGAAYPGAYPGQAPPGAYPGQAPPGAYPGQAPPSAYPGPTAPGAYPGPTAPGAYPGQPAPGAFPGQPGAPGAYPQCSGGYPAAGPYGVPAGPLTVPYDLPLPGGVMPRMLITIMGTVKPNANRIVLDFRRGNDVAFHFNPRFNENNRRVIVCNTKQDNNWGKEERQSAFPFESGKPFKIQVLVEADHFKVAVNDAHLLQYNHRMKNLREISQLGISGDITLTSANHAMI

Papp at 4 h [1] | Papp at 4 h [2] | IC50 (Galectin-3 [3]) | IC50 (Galectin-3 [4]) | Structure (SMILES) | further results
18.6 ×10⁻⁶ cm/s | 29.8 ×10⁻⁶ cm/s | 2510 nM |  | CO[C@@H]1[C@@H](n2cc(-c3cc(F)c(F)c(F)c3)nn2)[C@@H](O)[C@@H](CO)O[C@H]1C(=O)N(C)c1ccc2nc(C)sc2c1 | 
 |  | 150 nM | 30 nM | CO[C@@H]1[C@@H](n2cc(-c3cc(F)c(Br)c(F)c3)nn2)[C@@H](O)[C@@H](CO)O[C@H]1c1nc(C)nn1-c1ccc2ncsc2c1 | 
30.1 ×10⁻⁶ cm/s | 30.7 ×10⁻⁶ cm/s | 45 nM | 7.2 nM | Cc1nc([C@@H]2O[C@H](CO)[C@H](O)[C@H](n3cc(-c4ccc(Br)c(F)c4F)nn3)[C@H]2O)n(-c2ccc3ncsc3c2)n1 | IC50 (Galectin-1): 2600 nM; IC50 (Galectin-9): 2110 nM; AUC [5]: 3 µM·h; Ratio IC50 (Homo sapiens [6]): 293; Ratio IC50 (Homo sapiens [7]): 361; Cmax [8]: 600 nM
 | 10.4 ×10⁻⁶ cm/s | 151 nM | 18 nM | Cc1nc([C@@H]2O[C@H](CO)[C@H](O)[C@H](n3cc(-c4cc(F)c(Cl)c(F)c4)nn3)[C@H]2O)n(-c2ccc3ncsc3c2)n1 | 
0.8 ×10⁻⁶ cm/s | 1.9 ×10⁻⁶ cm/s | 3510 nM |  | Cc1nc2ccc(N(C)C(=O)[C@@H]3O[C@H](CO)[C@H](O)[C@H](n4cc(-c5cc(F)c(F)c(F)c5)nn4)[C@H]3O)cc2s1 | 
53.8 ×10⁻⁶ cm/s | 57.8 ×10⁻⁶ cm/s | 206 nM |  | CO[C@@H]1[C@@H](n2cc(-c3cc(F)c(Br)c(F)c3)nn2)[C@@H](O)[C@@H](CO)O[C@H]1C(=O)N(C)c1ccc2ncsc2c1 | 
 |  | 939 nM | 37 nM | OC[C@H]1O[C@@H](c2ncnn2-c2ccc3ncsc3c2)[C@H](O)[C@@H](n2cc(-c3cc(F)c(F)c(F)c3)nn2)[C@H]1O | 
13.7 ×10⁻⁶ cm/s | 9 ×10⁻⁶ cm/s | 179 nM | 22 nM | Cc1nc([C@@H]2O[C@H](CO)[C@H](O)[C@H](n3cc(-c4cc(F)c5ccccc5c4)nn3)[C@H]2O)n(-c2ccc3ncsc3c2)n1 | 
4.8 ×10⁻⁶ cm/s | 5.2 ×10⁻⁶ cm/s | 144 nM |  | Cc1nc([C@@H]2O[C@H](CO)[C@H](O)[C@H](n3cc(-c4cc(F)c(Br)c(F)c4)nn3)[C@H]2O)n(-c2ccc3ncsc3c2)n1 | 
 | 104 ×10⁻⁶ cm/s | 61 nM |  | CO[C@@H]1[C@@H](n2cc(-c3ccc(Br)c(F)c3F)nn2)[C@@H](O)[C@@H](CO)O[C@H]1c1nc(C)nn1-c1ccc2ncsc2c1 | IC50 (Galectin-1): 3520 nM; IC50 (Galectin-9): 2420 nM; AUC [5]: 8.7 µM·h; Ratio IC50 (Homo sapiens [6]): 186; Ratio IC50 (Homo sapiens [7]): 271; Cmax [8]: 1800 nM
 |  | 1310 nM | 71 nM | Cc1nc2cc(Cl)c(-n3ncnc3[C@@H]3O[C@H](CO)[C@H](O)[C@H](n4cc(-c5cc(F)c(F)c(F)c5)nn4)[C@H]3O)cc2s1 | 
 |  | 1200 nM | 52 nM | Cc1nc2cc(C)c(-n3ncnc3[C@@H]3O[C@H](CO)[C@H](O)[C@H](n4cc(-c5cc(F)c(F)c(F)c5)nn4)[C@H]3O)cc2s1 | 
29.5 ×10⁻⁶ cm/s | 29.4 ×10⁻⁶ cm/s | 169 nM |  | CO[C@H]1C(C(=O)N(C)c2ccc3ncsc3c2)O[C@H](CO)[C@H](O)[C@@H]1n1cc(-c2ccc(Cl)c(F)c2F)nn1 (single isomer, unassigned) | IC50 (Galectin-1): 1580 nM; Vdss [9]: 2.1 L/kg; IC50 (Galectin-9): 2750 nM; bioavailability [10]: 52%; AUC [5]: 13 µM·h; CL/F [11]: 12 mL/min/kg; Cmax [8]: 3100 nM
26.9 ×10⁻⁶ cm/s | 27.9 ×10⁻⁶ cm/s | 95 nM |  | CO[C@@H]1[C@@H](n2cc(-c3ccc(Br)c(F)c3F)nn2)[C@@H](O)[C@@H](CO)O[C@H]1C(=O)N(C)c1ccc2ncsc2c1 | 
80.2 ×10⁻⁶ cm/s | 73.1 ×10⁻⁶ cm/s | 84 nM | 11 nM | CO[C@@H]1[C@@H](n2cc(-c3ccc(Cl)c(F)c3F)nn2)[C@@H](O)[C@@H](CO)O[C@H]1c1nc(C)nn1-c1ccc2ncsc2c1 | IC50 (Galectin-1): 2720 nM; Vdss [9]: 1.8 L/kg; IC50 (Galectin-9): 3530 nM; bioavailability [10]: 40%; AUC [5]: 14 µM·h; CL/F [11]: 8 mL/min/kg; Ratio IC50 (Homo sapiens [6]): 321; Ratio IC50 (Homo sapiens [7]): 247; Cmax [8]: 4300 nM
3.9 ×10⁻⁶ cm/s | 1.5 ×10⁻⁶ cm/s | 536 nM | 28 nM | Cc1nc([C@@H]2O[C@H](CO)[C@H](O)[C@H](n3cc(-c4cc(F)c(F)c(F)c4)nn3)[C@H]2O)n(-c2ccc3ncsc3c2)n1 | 
 |  | 429 nM |  | CCN(C(=O)[C@@H]1O[C@H](CO)[C@H](O)[C@H](n2cc(-c3cc(F)c(Cl)c(F)c3)nn2)[C@H]1OC)c1ccc2ncsc2c1 | 
 |  | > 30000 nM | > 10000 nM | CO[C@@H]1[C@@H](n2cc(-c3cc(F)c(Cl)c(F)c3)nn2)[C@@H](O)[C@@H](CO)O[C@H]1C(=O)Nc1ccc2ncsc2c1 | 
16.3 ×10⁻⁶ cm/s | 24.1 ×10⁻⁶ cm/s | 86 nM | 8.8 nM | Cc1nc([C@@H]2O[C@H](CO)[C@H](O)[C@H](n3cc(-c4ccc(Cl)c(F)c4F)nn3)[C@H]2O)n(-c2ccc3ncsc3c2)n1 | IC50 (Galectin-1): 3830 nM; IC50 (Galectin-9): 3010 nM; Ratio IC50 (Homo sapiens [6]): 342; Ratio IC50 (Homo sapiens [7]): 435
16.7 ×10⁻⁶ cm/s | 16 ×10⁻⁶ cm/s | 178 nM |  | CO[C@@H]1[C@@H](n2cc(-c3cc(F)c(Cl)c(F)c3)nn2)[C@@H](O)[C@@H](CO)O[C@H]1C(=O)N(C)c1ccc2ncsc2c1 | 
 |  | 1220 nM | 63 nM | Cc1nc2ccc(-n3ncnc3[C@@H]3O[C@H](CO)[C@H](O)[C@H](n4cc(-c5cc(F)c(F)c(F)c5)nn4)[C@H]3O)cc2s1 | 
17.2 ×10⁻⁶ cm/s | 14.4 ×10⁻⁶ cm/s | 504 nM |  | CO[C@@H]1[C@@H](n2cc(-c3cc(F)c(F)c(F)c3)nn2)[C@@H](O)[C@@H](CO)O[C@H]1C(=O)N(C)c1ccc2ncsc2c1 | IC50 (Galectin-1): 3250 nM; IC50 (Galectin-9): 9970 nM
 | 59.1 ×10⁻⁶ cm/s | 150 nM |  | CO[C@@H]1[C@@H](n2cc(-c3cc(F)c(Cl)c(F)c3)nn2)[C@@H](O)[C@@H](CO)O[C@H]1c1nc(C)nn1-c1ccc2ncsc2c1 | 
